Each structure is given as a SMILES string. “And” between values parts separate entries of the source, which are not always exact repeats. Equal entries are not always repeated. Where two headings read alike, the source gives them in different places.

The subject of assay [1] is HIV-1 in acutely infected human PBM cells. The assay is described as follows: Median effect and combination index analysis in acutely infected human PBM cells (Day 6). It is filed as cell-based. The note with it: Human immunodeficiency virus 1, PBMC, 144 h. From the text: (§1) Table 5 provides the median effective concentration and combinations index (C.I.) values for D-D4FC alone and in combination with AZT and D4T in acutely infected human PBM cells (Day6). Table 6 describes the effect of β-D and β-L-D4FC against HIV-1 and cloned viruses I human PBM cells.

Assay [2] has as its system L-D4FC-res.(25 µM). The assay is described as follows: Effect against HIV-1 and cloned viruses in human PBM cells. It counts as cell-based.
Excerpt: as §1

Assay [3] relates to M184VPITT. Described as above. The note with it: for FI50: EC50 resistant virus relative to HIV-1LAV or xxBRUPITT; for FI90: EC90 resistant virus relative to HIV-1LAV or xxBRUPITT. It counts as cell-based.
Excerpt: as §1

The test system of assay [4] is M184V/T215YPITT. The assay is described as above. It is filed as cell-based. The conditions noted are these: for FI50: EC50 relative to HIV-1LAV or xxBRUPITT; for FI90: EC90 relative to HIV-1LAV or xxBRUPITT.
Excerpt: as §1

In assay [5] the test system is T215YPITT. The description is as above. The note with it: for FI50: EC50 relative to HIV-1LAV or xxBRUPITT; for FI90: EC90 relative to HIV-1LAV or xxBRUPITT. It counts as cell-based.
Excerpt: as §1

Assay [6] has as its system 215/41PITT. Described as above. It is filed as cell-based. The note with it: for FI50: EC50 relative to HIV-1LAV or xxBRUPITT.
Excerpt: as §1

Assay [7] concerns 4X AZTPITT (67N,70R,215Y,219Q). The assay is described as above. It is filed as cell-based. The conditions noted are these: for EC50 / EC90: human PBM cells.
Excerpt: as §1

The test system of assay [8] is G2-2PITT (103N,41L,184V,210W,others). The assay is described as follows: Effect against cloned viruses, in MT-2 cells. The conditions noted are these: for FI50: In MT-2 cells, EC50 relative to HIV-1LAV or xxBRUPITT. It is filed as cell-based, HIV-1.
Assay [9] relates to 4xM184VPITT (184V,67N,70R,215Y,219Q). The assay is described as follows: Effect against cloned viruses, in MT-2 cells. It is filed as cell-based, HIV-1. The conditions noted are these: for FI50: In MT-2 cells, EC50 relative to HIV-1LAV or xxBRUPITT.
Assay [10] deals with HIV-1LAV. Nature of the assay: Effect against HIV-1 and cloned viruses in human PBM cells. It counts as cell-based. The conditions noted are these: Human immunodeficiency virus 1, PBMC.
Excerpt: as §1

The test system of assay [11] is xxBRUPITT. The description is as above. It counts as cell-based. The conditions noted are these: Human immunodeficiency virus 1, PBMC.
Excerpt: as §1

In assay [12] the test system is HIV-1p20 D-Fd4C#2. The assay is described as follows: Antiviral susceptibility assay (p24 antigen) in MT-2 cells, D-D4FC selected virus, selection #2 passage 20. The conditions noted are these: mutations K65R, V179D; for EC50: p24 antigen, selection #2 passage 20. It is filed as cell-based. On the procedure: (§2) Selection of resistant virus. Prior to starting the selection of D-D4FC resistant virus, the starting virus (HIV -1LAI) was passaged as cell-free virus for 10 cycles in MT-2 cells in the absence of drug. D-D4FC resistant virus was selected by serially passaging HIV-1LAI in MT-2 cells in the presence of gradually increasing concentrations of D-D4FC. The selection for D-D4FC resistant virus was conducted twice. Selection was initiated by inoculating 1 x 10^6 MT-2 cells with […] of virus. At peak viral cytopathic effect (4-7 days post infection), supernatant from the infected cultures was collected and 0.1-0.3 ml were subsequently used to initiate another cycle of infection. Supernatant was also aliquoted and stored at -80°C for characterization of selected virus. Virus was passaged at least three times at each concentration, the number of cycles at any given concentration of drug being dependent on the ability of virus to grow at the particular concentration of D-D4FC. During the first selection procedure, virus was passaged once in the absence of drug prior to increasing the drug concentration (Table 2). As a control, virus was also passaged in parallel in the absence of drug. […]
(§3) Antiviral susceptibility assays. Virus susceptibility to D-D4FC was measured by measuring percent inhibition of p24 antigen production. Briefly, MT-2 cells (1 x 10^5 cells/ml) were infected with virus at a moi of 0.01 in the presence of serial D-D4FC dilutions. Each dilution was tested in triplicate. Culture supernatants were harvested day 7 post infection and assayed for p24 antigen production using a commercial assay (DuPont, NEN Products, Wilmington, Del.).

Assay [13] has as its system HIV-1p37 D-Fd4C#1. The assay is described as follows: Antiviral susceptibility assay (p24 antigen) in MT-2 cells, D-D4FC selected virus, selection #1 passage 37. It is filed as cell-based. The note with it: V90I, R172K. Here is the method:
as §2
Antiviral susceptibility assays. Virus susceptibility to D-D4FC was measured by measuring percent inhibition of p24 antigen production. […]

Assay [14] relates to xxV90I. The assay is described as follows: D-D4FC susceptibility of recombinant HIV-1 in MT-2 cells. It is filed as cell-based. On the procedure:
as §3
(§4) Production of mutant recombinant HIV-1. Mutant RT was generated using the Altered SitesII in vitro Mutagenesis System (Promega, Madison, WI). Mutagenesis was carried out on HIV-1LAI, RT cloned into a mutagenesis vector (PALTER, Promega). The presence of the desired mutation was determined by direct sequencing of the RT gene. The mutant RT was subsequently ligated into the pxxHIV-1 LAI vector. Stocks of mutant virus were then prepared by electrophorating 5-10 µg of DNA into 1.3 x 10^7 MT-2 cells as described above.

Assay [15] has as its system xxR172K. The assay is described as above. It is filed as cell-based. On the procedure:
as §3, §4

The subject of assay [16] is xxK70N//R172K. The assay is described as above. It counts as cell-based. On the procedure: as §3, §4
For assay [17], the system named is xxK70N. The assay is described as above. It is filed as cell-based. On the procedure:
as §3, §4

Assay [18] relates to xxV901/R172K. The assay is described as above. It is filed as cell-based. Here is the method: as §3, §4
In assay [19] the test system is xxK65R. Described as above. It counts as cell-based. Here is the method:
as §3, §4

The subject of assay [20] is HIV-1LAI. Nature of the assay: Antiviral susceptibility assay (inhibition of p24 antigen production) in MT-2 cells, starting virus. The conditions noted are these: Human immunodeficiency virus 1, MT2, 168 h, day 7 post infection, HIV-1LAI P0, wild type baseline. It is filed as cell-based. Here is the method:
Cells. MT-2 cells (AIDS Research and Reference Reagent Program, National Institute of Allergy and Infectious Diseases, National Institutes of Health, contributed by D. Richman) were cultured in RPMI 1640 (Whittaker M.A., Bioproducts, Walkersville, MD) supplemented with 10% fetal bovine serum, 10 mM HEPES buffer, penicillin (50 IU/ml) and streptomycin (50 µg/ml).
Viruses. HIV-1LAI, a molecularly cloned clinical isolate, was used both as the starting virus for the resistance selection as well as for the generation of recombinant mutants. Stock preparations of HIV-1LAI, were prepared by electrophorating 5-10 jig of proviral plasmid DNA into 1.3 x 10^7 MT-2 cells. At peak viral cytopathic effect (generally 7 days post transfection), the supernatant from infected cultures was collected, aliquoted and stored at -80°C until use. Virus preparations were titered by threefold endpoint dilution in MT-2 cells, and the TCID50 was calculated with the Reed and Muench equation.
Antiviral susceptibility assays. Virus susceptibility to D-D4FC was measured by measuring percent inhibition of p24 antigen production. Briefly, MT-2 cells (1 x 10^5 cells/ml) were infected with virus at a moi of 0.01 in the presence of serial D-D4FC dilutions. Each dilution was tested in triplicate. […]

Where [21] appears, read: acutely infected human PBM cells, Day 6.
Setting [22] is: median effective concentration, acutely infected human PBM cells, Day 6, read-out: EC50.
Where [23] appears, read: human PBM cells, L-D4FC-res.(25 µM) virus.
Where [24] appears, read: In MT-2 cells (courtesy of Dr. J. Mellors).
[25] abbreviates: Human immunodeficiency virus 1, PBMC, human PBM cells.
Where [26] appears, read: EC90 relative to HIV-1LAV or xxBRUPITT.
The mark [27] stands for this setting: Human immunodeficiency virus 1, PBMC.
[28] abbreviates: Human immunodeficiency virus 1, MT2, In MT-2 cells (courtesy of Dr. J. Mellors).

With `Cc1cn([C@H]2C=C[C@@H](CO)O2)c(=O)[nH]c1=O` [D4T, 2',3'-dideoxy-2',3'-didehydrothymidine], in assay [1] (setting [21]), the concentration for an effect of 90% (EC90) is 220 nM. Besides, in assay [1] (setting [22]), the concentration giving a half-maximal response (EC50) was determined as 15 nM.

With `Cc1cn([C@H]2C[C@H](N=[N+]=[N-])[C@@H](CO)O2)c(=O)[nH]c1=O` [AZT, 3'-azido-3'-deoxythymidine], the EC50 in assay [1] is 3.3 nM.

For the compound `Nc1nc(=O)n([C@H]2C=C[C@@H](CO)O2)cc1F` [β-L-D4FC, β-2',3'-didehydro-2',3'-dideoxy-5-fluorocytidine, reference compound], the FI50 is given as 222 in assay [2] (EC50 relative to HIV-1LAV or xxBRUPITT, L-D4FC-res.(25 µM)); 146 in assay [3]; 332 in assay [4]; 0.2 in assay [5]; 1 in assay [6]; over 47 in [8]. This compound came in with an FI50 in assay [9] of over 47. Further, the FI90 was determined as 208 in assay [2] (EC90 relative to HIV-1LAV or xxBRUPITT, L-D4FC-res.(25 µM)); 163 in assay [3]; 848 in [4]; 0.3 in assay [5]. Moreover, the concentration for a half-maximal effect (EC50) in assay [2] (setting [23]) was 7560 nM; in [7], 16 nM; in [8] (setting [24]) it was over 3300 nM; in assay [9] (setting [24]), over 3300 nM. The 90% effect concentration (EC90) in assay [2] (setting [23]) was 33300 nM; in assay [7], 110 nM.

On to `Nc1nc(=O)n([C@H]2C=C[C@@H](CO)O2)cc1F` [D-D4FC, β-2',3'-didehydro-2',3'-dideoxy-5-fluorocytidine], for which the 50% effective concentration (EC50) came out at 220 nM in assay [10]; 140 nM in [3] (setting [25]); 57 nM in [4] (setting [25]); 67 nM in assay [5] (setting [25]); 65 nM in [11]; 130 nM in assay [6] (setting [25]). Also, the EC50 was 72 nM in [7] (setting [27]); 7.6 nM in assay [1] (setting [22]); 1100 nM in [12] (Human immunodeficiency virus 1, MT2, MT-2 cells); 1110 nM in assay [12] (MT-2 cells); 4070 nM in assay [13] (Human immunodeficiency virus 1, MT2, p24 antigen, selection #1 passage 37, mutations K70N); 40 nM in assay [8] (setting [28]). Also, the EC50 in assay [14] (Human immunodeficiency virus 1, MT2, recombinant xxV90I) is 250 nM; in assay [15] (Human immunodeficiency virus 1, MT2, recombinant xxR172K), 230 nM; in [16] (Human immunodeficiency virus 1, MT2), 56 nM; in assay [17] (Human immunodeficiency virus 1, MT2, recombinant xxK70N) it was 240 nM; in assay [18] (Human immunodeficiency virus 1, MT2, recombinant xxV901/R172K), 360 nM; in [19] (Human immunodeficiency virus 1, MT2, recombinant xxK65R), 1240 nM. Moreover, the EC50 was found to be 210 nM in assay [20] and 45 nM in assay [9] (setting [28]). Further, the EC90 in assay [10] stood at 1320 nM; in assay [3] (setting [25]) it was 1040 nM; in [4] (setting [25]), 470 nM; in [5] (setting [25]), 350 nM; in assay [6] (setting [25]) it was 490 nM; in assay [7] (setting [27]), 460 nM. In addition, the EC90 in [1] (setting [21]) came out at 78 nM. Further, the FI50 in assay [3] (listed as β-D-D4FC) was found to be 2; in assay [4] (listed as β-D-D4FC) it was 1; in assay [5] (listed as β-D-D4FC), 1; in assay [6] (listed as β-D-D4FC), 2; in [7] (EC50 relative to HIV-1LAV or xxBRUPITT), 1; in assay [8] (listed as β-D-D4FC) it was 0.2. Also, the FI50 in assay [9] (listed as β-D-D4FC) came out at 0.2. Besides, the FI90 came out at 2 in assay [3] (listed as β-D-D4FC); 1 in [4] (listed as β-D-D4FC); 1 in assay [5] (listed as β-D-D4FC); 1 in [6] (setting [26]); 1 in assay [7] (setting [26]). Moreover, the “Fold Resistance” value in [12] (MT-2 cells, versus wild type HIV-1LAI, 10080 min) was 5.3; in assay [13] (versus wild type HIV-1LAI, mutations K70N, 10080 min) it was 19.3 and 19.4; in [14] (xxV90I versus xxLAI, 10080 min) it was 1.5; in assay [15] (xxR172K versus xxLAI, 10080 min), 0.8; in assay [16] (MT-2 cells, xxK70N/V901/R172K versus xxLAI, 10080 min) it was 0.4; in [17] (xxK70N versus xxLAI, 10080 min), 1.4. Also, the “Fold Resistance” value in [18] (xxV901/R172K versus xxLAI, 10080 min) was 1.3; in assay [19] (xxK65R versus xxLAI, 10080 min) it was 3.9.

These data come from EP1143976B9, “BETA-D-2', 3' -DIDEHYDRO-2', 3' -DIDEOXY-5-FLUOROCYTIDINE FOR USE IN THE TREATMENT OF HIV INFECTIONS” (priority 1999, dated 2000).
